{"source": "PubChem BioAssay AID588620", "about": "(NMMLSC, 2011)", "note": "pEC50: −log10 of the molar value. Active and inactive are the calls of the source.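 Rule for the calls: active = fitted half-maximal concentration below 30 µM for cell fluorescence in pump-free yeast, so likely self-fluorescent; inactive = the rest.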", "data": [{"system": "not listed separately", "assay": "concentration-dependent intrinsic compound fluorescence, S. cerevisiae AD/pABC3, flow cytometry, Cherry Pick1 hits, artefact control for antifungal efflux pump inhibitor project, dose response (AID 588620);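 note: red emission of unstained cells excited at 488 nm measured in PE-Texas Red channel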;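 for fluorescence response, % of control: cell median fluorescence as percent of DMSO wells so 100% equals vehicle baseline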", "details": "S. cerevisiae AD/pABC3 compound autofluorescence, flow cytometry; at 33.1 µM (top of the series)", "values": [{"compound": "Cc1ccc(CNC(=O)C(=O)NCC2OCCN2S(=O)(=O)c2ccc(Br)cc2)cc1", "note": "(stereo not given)", "fluorescence response, % of control": "88.1% (inactive)"}, {"compound": "O=C1Nc2ccccc2/C1=C/c1cnc(-c2ccccc2)[nH]1", "fluorescence response, % of control": "128% (inactive)"}, {"compound": "CCC(Sc1nc2ccsc2c(=O)n1Cc1ccc(C(=O)O)cc1)C(=O)Nc1ccc(C)c(Cl)c1", "note": "(stereo not given)", "fluorescence response, % of control": "81.2% (inactive)"}, {"compound": "COc1ccc(CCC(=O)NNC(=O)Cn2nc(C)cc2C)cc1", "fluorescence response, % of control": "100% (inactive)"}, {"compound": "CCN1CCN(c2cc(SC(C)C)nc(-c3ccc(OC)cc3)n2)CC1", "fluorescence response, % of control": "109% (inactive)"}, {"compound": "C#CC[N+](C)(C)CCCCCCCCCCCC", "fluorescence response, % of control": "117% (inactive)"}, {"compound": "O=C(O)c1nccnc1C(=O)N1CCN(c2ccccc2)CC1", "fluorescence response, % of control": "121% (inactive)"}, {"compound": "COc1ccc(-c2sc3cc(OC)ccc3c2-c2ccc(OCCN3CCOCC3)cc2)cc1", "fluorescence response, % of control": "153% (inactive)"}]}, {"system": "S. cerevisiae AD/pABC3 compound autofluorescence, flow cytometry", "assay": "concentration-dependent intrinsic compound fluorescence, S. cerevisiae AD/pABC3, flow cytometry, Cherry Pick1 hits, artefact control for antifungal efflux pump inhibitor project, dose response (AID 588620)", "details": "not given", "values": [{"compound": "C=CCn1c(=O)[nH]c2nc3cc(N=CN(C)C)c(C)cc3nc2c1=O", "pEC50": 5.29}, {"compound": "COc1ccccc1-c1nc(C(N)=O)c2[nH]c(=O)n(-c3cccc(C)c3)c2n1", "pEC50": 4.96}, {"compound": "Cc1ccc(/C=C2\\CCC3=C2OC(N)=C(C#N)C3c2ccc(C)cc2)cc1", "note": "(stereo not given)", "pEC50": 5.04}, {"compound": "O=C1/C(=C/c2ccco2)Oc2c1ccc(O)c2CN1CCCCC1", "pEC50": 5.22}, {"compound": "CCOc1ccc(NC(=O)CSc2nnc(Cc3cccn3C)n2-c2ccc(F)cc2)cc1", "pEC50": 4.87}, {"compound": "Cc1nc2ccccc2n1CCc1nc2c3ccccc3nc(SCC(=O)NCc3ccco3)n2n1", "pEC50": 4.91}, {"compound": "Cc1nn(Cc2cccc(C(=O)NC34CC5CC(CC(C5)C3)C4)c2)c(C)c1Br", "pEC50": 5.35}, {"compound": "Cc1ccc2nc(/C(C#N)=C/c3ccc(O)c(O)c3)[nH]c2c1", "pEC50": 5.27}, {"compound": "O=[N+]([O-])c1ccc(N2N=C(c3ccco3)CC2c2ccccc2)cc1", "note": "(stereo not given)", "pEC50": 4.74}, {"compound": "C[C@@]12C(=O)Nc3cc(F)c(F)cc3C(=O)N1[C@H]1c3cc(Cl)ccc3OC[C@@H]1[C@@H]2c1ccccc1", "pEC50": 4.91}, {"compound": "COc1ccc(OC)c2c1C(=O)C(Cl)=C(Cl)C2=O", "pEC50": 6.31}, {"compound": "COc1cc2sc(-c3ccccc3OC)c(-c3ccc(OCCN4CCOCC4)cc3)c2cc1OC", "pEC50": 4.76}]}]}
